# Laboratory results as given in ChEMBL document CHEMBL1124087, “Chemistry and positive inotropic effect of pelrinone and related derivatives. A novel class of 2-methylpyrimidones as inotropic agents” (J Med Chem, 1988).
# Where “and” joins values, the source holds several entries; their conditions need not be identical. Equal values may be shown once.
# Key:
# [1] = organism: Felis catus; assay: Chronotropic effects were assayed in vitro in the isolated right artium of the cat.; type: functional
# [2] = organism: Felis catus; assay: (§1) Ratio of Chronotropic (C) EC50 to inotropic (I) EC50; type: functional
# [3] = organism: Felis catus; assay: In vitro inotropic effect in cat papillary muscle; type: functional
# [4] = tested on: Canis familiaris; assay: (§2) Reduced arterial blood pressure after Id administration in dogs with pentobarbital-induced heart failure; type: functional; conditions: Canis lupus familiaris
# [5] = tested on: Canis familiaris; assay: Inotropic effect in the dogs with pentobarbtial-induced heart failure, id administration; type: functional; conditions: Canis lupus familiaris
# [6] = tested on: Canis familiaris; assay: Inotropic effect in dogs with pentobarbital-induced heart failure, iv administration; type: functional; conditions: Canis lupus familiaris
# [7] = tested on: Canis familiaris; assay: Inotropic effect in anesthetized dogs; type: functional; conditions: Canis lupus familiaris
# [8] = (§3) Inhibition of bovine cardiac phosphodiesterase fraction III; parameters: species or system Bos taurus
# [9] = (§4) Inhibition of crude bovine cardiac phosphodiesterase; parameters: species or system Bos taurus
# [10] = organism: Canis familiaris; assay: (§5) ED20/ED50 ratio (BP/ inotropic) of the compound; type: functional, Canis lupus familiaris
# [11] = tested on: Canis familiaris; assay: as §2; type: functional; conditions: Canis lupus familiaris; remark: listed apart in the source
# [12] = organism: Felis catus; assay: The inotropic activity was assayed in vitro in cat papillary muscle; type: functional, Muscle tissue
# [13] = organism: Felis catus; assay: Ratio of Chronotropic (C) EC50 to inotropic (I) EC50
# [14] = organism: Felis catus; assay: In vitro chronotropic effect in right artium of cat (Inactive); type: functional; also: test concentration or dose not given here
# [15] = organism: Felis catus; assay: In vitro inotropic effect in cat papillary muscle (Inactive); type: functional, Muscle tissue
# [16] = tested on: Canis familiaris; assay: Inotropic effect in dogs with pentobarbitial-induced heart failure, iv administration; type: functional; conditions: Canis lupus familiaris
# [17] = tested on: Canis familiaris; assay: Inotropic effect in dogs with pentobarbtial-induced heart failure, iv administration; type: functional; conditions: Canis lupus familiaris
# [18] = organism: Canis familiaris; assay: as §5; type: functional, Canis lupus familiaris; remark: listed apart in the source
# [19] = tested on: Canis familiaris; assay: as §2; type: functional; conditions: Canis lupus familiaris; remark: listed apart in the source
# [20] = target: Phosphodiesterase 3B (Bos taurus, UniProt E1BN64); assay: as §3
# [21] = as §4; type: functional, Bos taurus
# [22] = tested on: Canis familiaris; assay: as §2; type: functional; conditions: Canis lupus familiaris; remark: listed apart in the source
# [23] = organism: Canis familiaris; assay: as §1; type: functional, Canis lupus familiaris
# [24] = Felis catus, Muscle tissue, read-out: EC50
# Phosphodiesterase 3B, sequence (E1BN64 whole entry): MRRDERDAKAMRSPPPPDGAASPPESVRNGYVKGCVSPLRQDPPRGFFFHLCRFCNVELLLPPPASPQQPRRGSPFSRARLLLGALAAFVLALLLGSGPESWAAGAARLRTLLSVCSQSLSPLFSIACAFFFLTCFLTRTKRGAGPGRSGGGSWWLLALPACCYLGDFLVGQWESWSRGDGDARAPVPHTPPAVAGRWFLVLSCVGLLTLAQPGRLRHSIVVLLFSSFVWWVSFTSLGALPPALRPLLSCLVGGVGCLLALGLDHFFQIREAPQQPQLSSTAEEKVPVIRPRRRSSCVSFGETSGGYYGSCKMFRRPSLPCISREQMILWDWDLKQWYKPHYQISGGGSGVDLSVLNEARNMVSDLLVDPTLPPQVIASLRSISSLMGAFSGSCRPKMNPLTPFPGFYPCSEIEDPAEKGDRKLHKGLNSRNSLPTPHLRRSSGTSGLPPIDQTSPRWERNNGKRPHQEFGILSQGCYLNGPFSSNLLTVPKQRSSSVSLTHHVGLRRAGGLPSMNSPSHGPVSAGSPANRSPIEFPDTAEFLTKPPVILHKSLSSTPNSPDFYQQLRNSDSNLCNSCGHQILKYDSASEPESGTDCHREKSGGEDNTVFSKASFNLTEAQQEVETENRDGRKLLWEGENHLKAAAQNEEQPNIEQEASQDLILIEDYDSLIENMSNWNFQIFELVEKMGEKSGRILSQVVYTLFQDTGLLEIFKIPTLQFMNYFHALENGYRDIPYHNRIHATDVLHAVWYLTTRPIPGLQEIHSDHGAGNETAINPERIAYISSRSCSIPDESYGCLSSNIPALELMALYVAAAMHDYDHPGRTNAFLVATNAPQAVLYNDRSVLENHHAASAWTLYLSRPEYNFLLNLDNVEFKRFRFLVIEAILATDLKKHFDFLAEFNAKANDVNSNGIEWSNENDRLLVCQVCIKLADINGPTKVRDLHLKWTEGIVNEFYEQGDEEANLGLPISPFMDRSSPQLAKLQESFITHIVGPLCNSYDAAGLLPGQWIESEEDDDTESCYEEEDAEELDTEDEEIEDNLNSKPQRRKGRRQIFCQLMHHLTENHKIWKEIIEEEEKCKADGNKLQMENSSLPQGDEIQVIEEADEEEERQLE
Structure (SMILES),EC50 [1],"EC50 [12, 24] [µM]",EC50 [14],EC50 [15],Ratio [13],also measured
CCCNc1nc(C)nc(O)c1C#N,,1.9,,,9,"EC50 ([1]; Felis catus, read-out: EC50): 17 µM"
CCNc1nc(C)nc(O)c1[N+](=O)[O-],230 uM l-1,25,,,9,
CCNc1nc(C)nc(O)c1C(C)=O,,,Not Active,Not Active,,
Cc1nc(O)c(C#N)c(NCCc2ccccc2)n1,> 1000 uM l-1,20,,,>50,ED20 [4]: 0.027 mg/kg; ED50 [5]: 0.22 mg/kg; ED50 [16]: 0.07 mg/kg; ED20 [11]: 0.3 mg/kg
Cc1nc(O)c(Br)c(NCCc2ccccc2)n1,> 1000 uM l-1,6.1,,,>164,ED20 [4]: < 0.01 mg/kg; ED50 [5]: > 1 mg/kg; ED50 [17]: 0.029 mg/kg; ED20 [11]: > 1 mg/kg
CCNc1nc(C)nc(O)c1Br,420 uM l-1,4.1,,,,Ratio [2]: 102; Ratio [18]: <0.3; ED20 [4]: < 0.003 mg/kg; ED20 [19]: 0.05 mg/kg; ED50 [5]: 0.03 mg/kg; ED50 [6]: 0.01 mg/kg; ED50 [7]: 0.01 mg/kg; IC50 [8]: 38 µM; Ratio [10]: 1.6; EC50 ([12]; read-out: EC50): 2.8 µM
Cc1nc(O)c(C#N)c(NCc2ccco2)n1,,10,,,8.8,"EC50 ([1]; Felis catus, read-out: EC50): 88 µM"
CCNc1nc(C)nc(O)c1C#N,300 uM l-1,2.6,,,115,Ratio [18]: 1.4 and 1.2; ED20 [4]: 0.37 mg/kg; ED50 [5]: 0.06 mg/kg; ED50 [16]: 0.027 mg/kg; ED20 [11]: 0.07 mg/kg
Cc1nc(O)c(Cl)c(NCCc2ccccc2)n1,> 1000 uM l-1,1.2,,,>833,
Cc1nc(O)c(C#N)c(NCCc2ccccn2)n1,,37,,,2,"EC50 ([1]; Felis catus, read-out: EC50): 71 µM"
Cc1nc(O)c(C#N)c(NCCc2ccncc2)n1,396 uM l-1,6.5,,,61,
CSc1ccc(C(=O)c2[nH]c(=O)[nH]c2C)cc1 [ENOXIMONE],200 uM l-1,90,,,2.2,
O=C1CCC(c2ccc(-n3ccnc3)cc2)=NN1 [IMAZODAN],,7,,,,ED50 [7]: 0.08 mg/kg; IC50 [20]: 94 µM; IC50 [21]: 145 µM
Cc1[nH]c(=O)c(C#N)cc1-c1ccncc1 [MILRINONE],~ 300 uM l-1,7.7,,,,Ratio [2]: ~39; EC50 [3]: 6.5 µM; Ratio [18]: 3; ED20 [4]: 0.048 mg/kg; ED50 [5]: 0.04 mg/kg; ED50 [6]: 0.016 mg/kg; ED50 [7]: 0.02 mg/kg; IC50 [8]: 28 µM; IC50 [9]: 192 µM; Ratio [10]: 2.5; ED20 [11]: 0.1 mg/kg

# Second part, led by results:
EC50 [1],"EC50 [12, 24] [µM]",EC50 [14],EC50 [15],Structure (SMILES),Ratio [13],also measured
380 uM l-1,3.9,,,Cc1nc(O)c(Br)c(NCc2cccnc2)n1,,Ratio [2]: 97; EC50 [3]: 2.5 µM; ED20 [4]: 0.041 mg/kg; ED50 [5]: 0.022 mg/kg; ED50 [6]: 0.018 mg/kg; ED50 [7]: 0.012 mg/kg; IC50 [8]: 15 µM; IC50 [9]: 35 µM; Ratio [10]: 2.3 and 4.5; ED20 [11]: 0.1 mg/kg
110 uM l-1,55,,,CC(C)(C)c1nc(O)c(C#N)c(NCc2cccnc2)n1,2,
,,Not Active,Not Active,N#Cc1c(O)nc(O)nc1NCc1cccnc1,,
,,Not Active,Not Active,COc1nc(C)nc(NCc2cccnc2)c1C#N,,
,,Not Active,Not Active,CNc1nc(C)nc(NCc2cccnc2)c1C#N,,
,,Not Active,Not Active,N#Cc1c(O)ncnc1NCc1cccnc1,,
250 uM l-1,4.4,,,Cc1nc(O)c(C#N)c(NCc2ccncc2)n1,57,
,,Not Active,Not Active,CC(=O)c1c(O)nc(C)nc1NCc1cccnc1,,
,14,,,Cc1nc(S)c(C#N)c(NCc2cccnc2)n1,6,"EC50 ([1]; Felis catus, read-out: EC50): 80 µM"
300 uM l-1,,,,Cc1nc(O)c(C#N)c(NCCc2cccnc2)n1,1.3,EC50 [12]: 230 uM l-1
180 uM l-1,43,,,Cc1nc(O)c(C#N)c(NCc2ccccn2)n1,4,
,,Not Active,Not Active,N#Cc1c(O)nc(-c2ccccc2)nc1NCc1cccnc1,,
> 1000 uM l-1,5.3,,,Cc1nc(O)c([N+](=O)[O-])c(NCc2cccnc2)n1,>189,
,,Not Active,Not Active,Cc1nc(Cl)c(C#N)c(NCc2cccnc2)n1,,
,5.5,,,CCc1nc(O)c(C#N)c(NCc2cccnc2)n1,16,"EC50 ([1]; Felis catus, read-out: EC50): 86 µM"
,,Not Active,Not Active,Cc1nc(O)c(C(N)=O)c(NCc2cccnc2)n1,,
~ 1000 uM l-1,72,,,N#Cc1c(O)nc(Cc2ccccc2)nc1NCc1cccnc1,14,
,,Not Active,Not Active,CSc1nc(C)nc(NCc2cccnc2)c1C#N,,
212 uM l-1,5.9,,,Cc1nc(=O)c(C#N)c(NCc2cccnc2)[nH]1 [PELRINONE],,EC50 [3]: 5 µM; ED20 [22]: > 3 mg/kg; ED20 [4]: 0.12 mg/kg; ED50 [5]: 0.2 mg/kg; ED50 [16]: 0.033 mg/kg; ED50 [7]: 0.03 mg/kg; IC50 [8]: 36 µM; IC50 [9]: 76 µM; Ratio [23]: 36
